Results reported in ChEMBL document CHEMBL3132785, “Design, synthesis and evaluation of N6-substituted 2-aminoadenosine-5-N-methylcarboxamides as A3 adenosine receptor agonists” (Medchemcomm, 2014).
pEC50: −log10 of the molar value.

Legend:
Homo sapiens [1] = organism: Homo sapiens; test: Selectivity ratio; ratio of pEC50 for human adenosine A2B receptor to pEC50 for human adenosine A3 receptor
Homo sapiens [2] = organism: Homo sapiens; test: Selectivity ratio; ratio of pEC50 for human adenosine A2A receptor to pEC50 for human adenosine A3 receptor
[3] = biological target: Adenosine receptors; A1 & A3 (Homo sapiens) (UniProt P30542+P0DMS8); test: Selectivity ratio; ratio of pEC50 for human adenosine A1 receptor to pEC50 for human adenosine A3 receptor
Adenosine receptor A3 = biological target: T1, Adenosine receptor A3 (Homo sapiens, UniProt P0DMS8); test: Agonist activity at human adenosine A3 receptor expressed in FlpIn-CHO cells assessed as inhibition of forskolin-induced cAMP accumulation after 30 mins by fluorescence assay; type: functional, cell-based
T1 sequence (P0DMS8 whole entry): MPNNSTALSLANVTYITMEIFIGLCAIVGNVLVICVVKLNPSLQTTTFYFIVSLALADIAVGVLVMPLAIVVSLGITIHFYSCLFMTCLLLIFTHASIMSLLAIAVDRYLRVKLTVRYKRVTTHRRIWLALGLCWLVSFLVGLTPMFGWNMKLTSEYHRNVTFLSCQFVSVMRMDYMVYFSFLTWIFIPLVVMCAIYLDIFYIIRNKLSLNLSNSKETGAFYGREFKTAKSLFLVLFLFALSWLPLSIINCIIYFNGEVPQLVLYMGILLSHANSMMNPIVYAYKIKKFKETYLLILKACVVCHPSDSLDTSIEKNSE

Adenosine receptor A2b = biological target: T2, Adenosine receptor A2b (Homo sapiens, UniProt P29275); test: Agonist activity at human adenosine A2B receptor expressed in FlpIn-CHO cells assessed as inhibition of forskolin-induced cAMP accumulation after 30 mins by fluorescence assay; type: functional, cell-based
T2 sequence (P29275 whole entry): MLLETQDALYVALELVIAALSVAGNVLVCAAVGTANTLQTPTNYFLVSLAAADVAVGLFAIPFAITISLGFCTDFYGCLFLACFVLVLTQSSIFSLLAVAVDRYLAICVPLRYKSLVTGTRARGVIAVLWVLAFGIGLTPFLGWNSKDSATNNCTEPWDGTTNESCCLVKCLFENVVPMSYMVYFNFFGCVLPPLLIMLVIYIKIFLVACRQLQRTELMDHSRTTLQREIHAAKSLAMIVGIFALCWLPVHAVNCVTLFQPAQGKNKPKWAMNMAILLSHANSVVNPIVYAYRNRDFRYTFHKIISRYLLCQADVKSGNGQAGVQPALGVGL

Adenosine receptor A2a = Adenosine receptor A2a (Homo sapiens, UniProt P29274); test: Agonist activity at human adenosine A2A receptor expressed in FlpIn-CHO cells assessed as inhibition of forskolin-induced cAMP accumulation after 30 mins by fluorescence assay; type: functional, cell-based
Adenosine receptor A1 = biological target: T3, Adenosine receptor A1 (Homo sapiens, UniProt P30542); test: Agonist activity at human adenosine A1 receptor expressed in FlpIn-CHO cells assessed as inhibition of forskolin-induced cAMP accumulation after 30 mins by fluorescence assay; type: functional, cell-based
T3 sequence (P30542 whole entry): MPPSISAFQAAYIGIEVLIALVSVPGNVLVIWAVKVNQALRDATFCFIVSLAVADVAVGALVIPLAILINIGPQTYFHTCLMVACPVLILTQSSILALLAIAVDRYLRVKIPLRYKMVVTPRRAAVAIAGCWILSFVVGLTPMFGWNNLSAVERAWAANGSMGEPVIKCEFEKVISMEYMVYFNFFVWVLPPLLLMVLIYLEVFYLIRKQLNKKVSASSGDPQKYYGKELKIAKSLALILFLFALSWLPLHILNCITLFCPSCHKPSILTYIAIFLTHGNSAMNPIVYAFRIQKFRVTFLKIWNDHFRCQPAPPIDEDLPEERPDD

Sequence of Adenosine receptor A2a (P29274 whole entry): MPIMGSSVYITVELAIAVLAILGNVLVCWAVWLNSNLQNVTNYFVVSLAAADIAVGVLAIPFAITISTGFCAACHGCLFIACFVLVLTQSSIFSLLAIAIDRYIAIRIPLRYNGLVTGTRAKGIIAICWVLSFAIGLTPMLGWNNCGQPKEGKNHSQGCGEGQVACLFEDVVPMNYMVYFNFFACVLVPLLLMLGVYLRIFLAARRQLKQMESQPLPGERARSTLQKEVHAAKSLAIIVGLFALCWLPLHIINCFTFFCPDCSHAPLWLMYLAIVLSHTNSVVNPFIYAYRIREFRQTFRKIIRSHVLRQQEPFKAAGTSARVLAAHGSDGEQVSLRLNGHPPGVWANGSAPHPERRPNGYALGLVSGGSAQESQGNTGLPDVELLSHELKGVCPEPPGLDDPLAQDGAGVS

| SMILES | Selectivity ratio (Homo sapiens [1]) | Selectivity ratio (Homo sapiens [2]) | Selectivity ratio [3] | pEC50 (Adenosine receptor A3) | pEC50 (Adenosine receptor A2b) | pEC50 (Adenosine receptor A2a) | pEC50 (Adenosine receptor A1) |
| --- | --- | --- | --- | --- | --- | --- | --- |
| CNC(=O)[C@H]1O[C@@H](n2cnc3c(NC4CCCC4)nc(NC)nc32)[C@H](O)[C@@H]1O | > 100 | 40 | 4 | 7.00 | < 5.00 | 5.40 | 6.40 |
| CNC(=O)[C@H]1O[C@@H](n2cnc3c(NC)nc(N)nc32)[C@H](O)[C@@H]1O | 316 | > 2000 | 794 | 8.30 | 5.80 | < 5.00 | 5.40 |
| CNC(=O)[C@H]1O[C@@H](n2cnc3c(NCc4cccc(I)c4)ncnc32)[C@H](O)[C@@H]1O [IB-MECA] |  |  |  |  | 7.50 |  |  |
| CCNc1nc(NC2CCCC2)c2ncn([C@@H]3O[C@H](C(=O)NC)[C@@H](O)[C@H]3O)c2n1 | > 251 | 8 | 8 | 7.40 | < 5.00 | 6.30 | 6.30 |
| CCN(CC)c1nc(NC2CCCC2)c2ncn([C@@H]3O[C@H](C(=O)NC)[C@@H](O)[C@H]3O)c2n1 | > 4 | > 4 | > 4 | 5.60 | < 5.00 | < 5.00 | < 5.00 |
| CNC(=O)[C@H]1O[C@@H](n2cnc3c(NCC(c4ccccc4)c4ccccc4)nc(N)nc32)[C@H](O)[C@@H]1O | 40 | 158 | 79 | 8.30 | 6.70 | 6.10 | 6.40 |
| CNC(=O)[C@H]1O[C@@H](n2cnc3c(NC4CCCC4)nc(N(C)C)nc32)[C@H](O)[C@@H]1O | > 16 | 8 | > 16 | 6.20 | < 5.00 | 5.30 | < 5.00 |
| CCCNc1nc(N)nc2c1ncn2[C@@H]1O[C@H](C(=O)NC)[C@@H](O)[C@H]1O | 501 | > 1000 | 32 | 8.00 | 5.30 | < 5.00 | 6.50 |
| CCCCNc1nc(N)nc2c1ncn2[C@@H]1O[C@H](C(=O)NC)[C@@H](O)[C@H]1O | 32 | > 251 | 20 | 7.40 | 5.90 | < 5.00 | 6.10 |
| CNC(=O)[C@H]1O[C@@H](n2cnc3c(NC4CCC4)nc(N)nc32)[C@H](O)[C@@H]1O | 40 | 501 | 13 | 8.30 | 6.70 | 5.60 | 7.20 |
| CNC(=O)[C@H]1O[C@@H](n2cnc3c(NCc4cccc(Cl)c4)nc(N)nc32)[C@H](O)[C@@H]1O | 631 | 631 | 501 | 9.20 | 6.40 | 6.40 | 6.50 |
| CNC(=O)[C@H]1O[C@@H](n2cnc3c(NC4CCCCC4)nc(N)nc32)[C@H](O)[C@@H]1O | 20 | 6 | 1 | 6.90 | 5.60 | 6.10 | 7.20 |
| CNC(=O)[C@H]1O[C@@H](n2cnc3c(NCCc4ccccc4)nc(N)nc32)[C@H](O)[C@@H]1O | 40 | 20 | 79 | 8.40 | 6.80 | 7.10 | 6.50 |
| CNC(=O)[C@H]1O[C@@H](n2cnc3c(NCc4ccccc4)nc(N)nc32)[C@H](O)[C@@H]1O | 4 | 100 | 200 | 7.50 | 6.90 | 5.50 | 5.20 |
| CNC(=O)[C@H]1O[C@@H](n2cnc3c(NCc4cccc(I)c4)nc(N)nc32)[C@H](O)[C@@H]1O | 100 | 158 | 158 | 8.80 | 6.80 | 6.60 | 6.60 |
| CCNc1nc(N)nc2c1ncn2[C@@H]1O[C@H](C(=O)NC)[C@@H](O)[C@H]1O | 158 | > 1000 | 251 | 8.00 | 5.80 | < 5.00 | 5.60 |
| CNC(=O)[C@H]1O[C@@H](n2cnc3c(NC4CCCC4)nc(N)nc32)[C@H](O)[C@@H]1O | 50 | 79 | 3 | 7.80 | 6.10 | 5.90 | 7.40 |
